Here are results for 21 molecules from patent publication US20090191193A1, “Aryl Vinyl Sulfides, Sulfones, Sulfoxides and Sulfonamides, Derivatives Thereof and Therapeutic Uses Thereof” (TEMPLE UNIVERSITY-OF THE COMMONWEALTH SYSTEM OF HIGHER …, priority 2006, published 2009).

Bounds are passed on as bounds.

In series [1] the test system is K562 (chronic myelogenous leukaemia). Nature of the series: Effect on tumor cell lines, viable cell count by trypan blue exclusion (Latham et al.): K562. It counts as cell-based. The note with it: Homo sapiens, K562, 96 h, K562 chronic myelogenous leukaemia cells, viable cell count 96 hours after treatment. Here is the method:
(§1) The effect of the compounds of the invention on tumor cells was determined by the assay described by Latham et al., Oncogene 12:827-837 (1996). Tumor cells DU145 (prostate cancer), K562 (chronic myelogenous leukaemia), BT20 (breast carcinoma), H157 (non small cell lung carcinoma), or DLD1 (colon carcinoma) were plated in 6-well dishes at a cell density of 1.0×10^5 cells per 35-mm^2 well. […] The total number of viable cells was determined 96 hours later by trypsinizing the wells and counting the number of viable cells, as determined by trypan blue exclusion, using a hemacytometer. Normal HFL cells were treated with the same compounds under the same conditions of concentration and time.

A further series has as its system DU145 (prostate cancer). Nature of the series: Effect on tumor cell lines, viable cell count by trypan blue exclusion (Latham et al.): DU145. The note with it: Homo sapiens, DU-145, 96 h, DU145 prostate cancer cells, viable cell count 96 hours after treatment. The format is cell-based. As for the experimental part:
as §1

Turning to `N#C/C(=C\c1ccc(Br)cc1)S(=O)(=O)Cc1ccc(Cl)cc1` [Example 45], the melting point was 168 to 180 °C. In series [1], this molecule had a 50% inhibitory concentration (IC50) of 50 to 100 µM. The 50% inhibitory concentration (IC50) with DU145 (prostate cancer) lay within 50 to 100 µM.

In the case of `COc1ccc(/C=C(\C#N)S(=O)(=O)Cc2ccc(Cl)cc2)c(OC)c1OC` [Example 46], the melting point was 120 to 128 °C. The molecule also had an IC50 in series [1] of more than 100 µM. Besides, in the series with DU145 (prostate cancer), the IC50 is more than 100 µM.

In turn, `N#C/C(=C\c1ccc(F)cc1)S(=O)(=O)Cc1ccc(Cl)cc1` [Example 47] returned a melting point of 145 to 150 °C. For the same molecule, in series [1], the 50% inhibitory concentration (IC50) is 50 to 100 µM. The molecule also had an IC50 with DU145 (prostate cancer) of 50 to 100 µM.

For the molecule `N#C/C(=C\c1ccc([N+](=O)[O-])cc1F)S(=O)(=O)Cc1ccc(Cl)cc1` [Example 48], the melting point lay within 243 to 253 °C. The molecule further registered an IC50 in series [1] of 1 to 10 µM. In the series with DU145 (prostate cancer), this molecule registered an IC50 of 1 to 10 µM.

`COc1ccc(/C=C(\C#N)S(=O)(=O)Cc2ccc(Cl)cc2)c(F)c1` [Example 49]: the melting point was 145 to 155 °C. The same molecule showed a concentration for half-maximal inhibition (IC50) in series [1] of 50 to 100 µM. Also, in the series with DU145 (prostate cancer), the IC50 was more than 100 µM.

`COc1ccc(/C=C(\C#N)S(=O)(=O)Cc2ccc(Cl)cc2)cc1` [Example 50] registered a melting point of 143 to 152 °C. The molecule further displayed an IC50 in series [1] of more than 100 µM. In addition, in the series on DU145 (prostate cancer), the IC50 was more than 100 µM.

As for `N#C/C(=C\c1ccc(Cl)cc1Cl)S(=O)(=O)Cc1ccc(Cl)cc1` [Example 51], the melting point was in the range of 121 to 126 °C. Besides, in series [1], the IC50 was in the range of 25 to 50 µM. The molecule also came in with an IC50 in the series with DU145 (prostate cancer) of 25 to 50 µM.

On to `N#C/C(=C\c1ccc(Cl)c(Cl)c1)S(=O)(=O)Cc1ccc(Cl)cc1` [Example 52], for which the melting point was in the range of 145 to 155 °C. Besides, the IC50 in series [1] was 10 to 25 µM. Further, the IC50 in the series with DU145 (prostate cancer) was 25 to 50 µM.

`COc1cc(OC)c(/C=C(\C#N)S(=O)(=O)Cc2ccc(Cl)cc2)c(OC)c1` [Example 53]: the melting point lay within 177 to 180 °C. Further, the IC50 in series [1] is 50 to 100 µM. This molecule displayed an IC50 with DU145 (prostate cancer) of 50 to 100 µM.

Consider `CCOc1cc(/C=C(\C#N)S(=O)(=O)Cc2ccc(Cl)cc2)ccc1O` [Example 54], for which the melting point was 155 to 169 °C. The IC50 in series [1] lay within 50 to 100 µM. Besides, the IC50 with DU145 (prostate cancer) was more than 100 µM.

`CCOc1ccc(/C=C(\C#N)S(=O)(=O)Cc2ccc(Cl)cc2)cc1OC` [Example 55] showed a melting point of 143 to 148 °C. In series [1], this molecule registered an IC50 of 10 to 25 µM. In the series on DU145 (prostate cancer), the IC50 is 10 to 25 µM.

`COc1cc(/C=C(\C#N)S(=O)(=O)Cc2ccc(Cl)cc2)cc(OC)c1` [Example 56] showed a melting point of 155 to 165 °C. In series [1], the IC50 fell in the range of 25 to 50 µM. For the same molecule, the IC50 with DU145 (prostate cancer) was in the range of 50 to 100 µM.

As to `CC(=O)Oc1ccc(/C=C(\C#N)S(=O)(=O)Cc2ccc(Cl)cc2)cc1` [Example 57], the melting point fell in the range of 192 to 202 °C. This molecule also returned an IC50 in series [1] of 25 to 50 µM. In the series with DU145 (prostate cancer), this molecule yielded an IC50 of 25 to 50 µM.

The molecule `N#C/C(=C\c1ccc(O)c([N+](=O)[O-])c1)S(=O)(=O)Cc1ccc(Cl)cc1` [Example 59] had a melting point of 195 to 205 °C. This molecule yielded an IC50 in series [1] of 50 to 100 µM. The molecule further gave an IC50 in the series on DU145 (prostate cancer) of 50 to 100 µM.

`N#C/C(=C\c1ccc(O)cc1O)S(=O)(=O)Cc1ccc(Cl)cc1` [Example 60] displayed a melting point of 250 to 255 °C. The molecule also yielded an IC50 in series [1] of more than 100 µM. In the series on DU145 (prostate cancer), this molecule yielded a half-maximal inhibitory concentration (IC50) of more than 100 µM.

`N#C/C(=C\c1ccc(Cl)cc1)S(=O)(=O)Cc1ccc(Cl)cc1` [Example 61]: the melting point lay in the range of 145 to 168 °C. Moreover, the half-maximal inhibitory concentration (IC50) in series [1] fell in the range of 25 to 50 µM. The molecule also displayed an IC50 in the series on DU145 (prostate cancer) of 50 to 100 µM.

For `N#C/C(=C\c1ccc(Cl)c(Cl)c1Cl)S(=O)(=O)Cc1ccc(Cl)cc1` [Example 62], the melting point is 145 to 155 °C. In series [1], the IC50 was 50 to 100 µM. The IC50 in the series with DU145 (prostate cancer) was more than 100 µM.

`Cc1ccc(/C=C(\C#N)S(=O)(=O)Cc2ccc(Cl)cc2Cl)s1` [Example 63] displayed a melting point of 118 to 124 °C. In series [1], this molecule yielded an IC50 of more than 100 µM. This molecule came in with an IC50 in the series with DU145 (prostate cancer) of more than 100 µM.

`CN(C)c1ccc(/C=C(\C#N)S(=O)(=O)Cc2ccc(F)cc2)cc1` [Example 64] had a melting point of 135 to 145 °C. In series [1], this molecule showed an IC50 of 50 to 100 µM. For the same molecule, in the series on DU145 (prostate cancer), the IC50 was 50 to 100 µM.

`COc1ccc(/C=C(\C#N)S(=O)(=O)Cc2ccc(Cl)cc2Cl)c(F)c1` [Example 65] came in with a melting point of 140 to 155 °C. The molecule also yielded an IC50 in series [1] of 50 to 100 µM. Besides, the IC50 in the series with DU145 (prostate cancer) was in the range of 50 to 100 µM.

With `Cc1ccc(/C=C(\C#N)S(=O)(=O)Cc2ccc(Cl)cc2)cc1C` [Example 66], the melting point lay in the range of 191 to 202 °C. In series [1], this molecule had an IC50 of 50 to 100 µM. In addition, the IC50 with DU145 (prostate cancer) was in the range of 50 to 100 µM.
